From publication PMC7837296, “A novel LysR‐type regulator negatively affects biosynthesis of the immunosuppressant brasilicardin” (Engineering in Life Sciences, 2020) come the findings set out here.

In test [1] the target is T1, LysRNt (LysRNtHis6) (Nocardia terpenica, UniProt A0A164MN72).
T1 construct: gene AWN90_33365; full length, C-terminal His6 tag kept (pET-21a(+)lysRNt), E. coli Rosetta 2(DE3), Talon column; only monomer seen; re-annotated start (not the N-terminally extended lysRlnNt)
T1 sequence (A0A164MN72 1-303): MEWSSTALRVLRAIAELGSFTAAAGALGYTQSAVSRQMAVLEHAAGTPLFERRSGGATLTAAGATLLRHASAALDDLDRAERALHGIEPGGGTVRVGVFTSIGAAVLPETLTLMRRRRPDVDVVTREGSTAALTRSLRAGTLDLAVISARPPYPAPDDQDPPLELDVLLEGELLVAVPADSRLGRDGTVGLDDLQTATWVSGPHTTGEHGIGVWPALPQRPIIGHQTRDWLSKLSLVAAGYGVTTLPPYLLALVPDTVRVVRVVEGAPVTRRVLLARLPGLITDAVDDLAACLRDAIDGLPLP
As to the kind of experiment: fluorescence thermal shift, SYPRO Orange. The test is classed as binding. Particulars: read-out: dTmD at 0.6 mM.

Test [2] has as its target T1, LysRNt (LysRNtHis6). As to the kind of experiment: EMSA with […]-labelled bra12p DNA. Type of test: binding. Particulars: 500 nM protein, PBS, 1% ethanol. On the technique in general: Mobility shift assays separate free from complexed probe on a gel.

`O=C(O)c1ccccc1` [compound 2, sodium benzoate]: the ΔTm at 600 µM in test [1] stood at 0.19 °C. Besides, in test [2] (weak effect), the “% DNA-protein complex remaining at 1 mM” value is recorded as 84%.
`O=C(O)c1ccccc1O` [compound 4, salicylic acid]: the ΔTm at 600 µM in test [1] was determined as 0.74 °C. The “% DNA-protein complex remaining at 1 mM” value in test [2] (compound lowers DNA binding) came out at 47%.
As to `O=C(O)c1cccc(O)c1` [compound 5, 3-hydroxybenzoic acid], the ΔTm at 600 µM in test [1] was found to be 0.17 °C. In addition, in test [2] (weak effect), the “% DNA-protein complex remaining at 1 mM” value turned out to be 86%.
